Entries after “also recorded” stand apart in the source; their conditions may differ. Like-named read-outs stand apart in the source and are kept apart here.
How the values were obtained:
[1] = system: NQO1 knockout mice; details: day 18
Procedure: The day, on which the NQO1 knockout mice were hair-removed according to Example 1, was set as day 0, and the animals were divided into the following experimental groups and used for experiments: normal group (Control, 4 animals) in which only PBS is intraperitoneally injected on day 9; cyclophosphamide group (CYP, 6 animals) in which cyclophosphamide (150 mg/kg) is intraperitoneally injected on day 9; combination-treated group (CYP+Dunnione, 6 animals) in which dunnione is orally administered on a daily basis starting from 3 days prior to treatment with cyclophosphamide; and dunnione alone-treated group (Dunnione, 4 animals) in which only dunnione (20 mg/kg) is administered (FIG. 1).
The day, on which the NQO1 knockout mice were hair-removed according to Example 1, was set as day 0, and the mice in each of the experimental groups described in Example 3 were sacrificed on day 18. Subsequently, the mouse dorsal skin was dissected parallel or perpendicular to the vertebral line, and removed. The removed skin was fixed with a Bouin's solution for 12 hours, subjected to dehydration, and embedded in paraffin. Then, the resulting product was prepared into 5-μm sections. The prepared sections were subjected to hematoxylin and eosin (H&E) staining, and histological changes in the skin in each experimental group were observed.

[2] = system: Sirt1; test: Sirt1 activity in skin tissue (fluorescent Sirt1 detection kit), cyclophosphamide alopecia model; format: in vivo, mice; details: cyclophosphamide plus dunnione combination-treated group; day 18
Procedure: In addition, the skin tissue obtained from the animal model prepared by the method in Example 2 was homogenized. The homogenized skin tissue was tested with the fluorescent Sirt1 detection kit (BML-AK555-0001) of Enzo Life Sciences International, Inc. according to the instruction manual, and then Sirt1 activity was analyzed. 40 μg of the homogenized skin tissue was mixed with a reaction solution (Fluor de Lys-Sirt1, NAD+, buffer solution (25 mM Tris-HCl (pH8.0), 137 mM NaCl, 2.7 mM […], 1 mM MgCl2, and 1 mg/mL BSA)), and reaction was allowed to proceed at a temperature of 37° C. for 1 hour. Then, additional reaction was allowed to proceed for 5 minutes under a condition in which a developer is added. In order to check the final Sirt1 activity, readings were measured for the reaction solution using the CytoFluor series 4000 fluorometer (PerSeptive Biosystems, Inc., USA) with the excitation wavelength set to 360 nm and the emission to 460 nm.

[3] = system: Sirt1 protein; test: Expression level of Sirt1 protein in skin tissue (western blot), cyclophosphamide alopecia model; format: in vivo, mice; details: cyclophosphamide plus dunnione; day 18
Procedure: (§1) In the cyclophosphamide-induced alopecia mouse model of Example 2, expression level of Sirt1 protein and acetylation reaction of the target proteins thereof, NF-κB p65 and p53, were identified on the skin tissue obtained on day 18 after hair removal.
(§2) Specifically, 10 mg of the skin tissue obtained from the animal model prepared by the method in Example 2 was homogenized by addition of a lysis solution (RIPA lysis buffer). Then, centrifugation was performed at 14,000 rpm for 10 minutes. The protein concentration in the supernatant was quantified with a bovine serum albumin (BSA) standard solution. The skin tissue protein was used in an amount of 40 μg per test solution. First, the homogenized skin tissue was mixed with a sample solution (Bio-Rad, 161-0747) and inactivated at a temperature of 95° C. for 5 minutes. Thereafter, the protein was separated by a sodium dodecyl sulfate-polyacrylamide gel electrophoresis (SDS-PAGE) method, and then transferred to a nitrocellulose membrane. Treatment with anti-Sirt1 antibody (Abcam), anti-acetyl NF-κB p65 antibody and anti-acetyl p53 antibody (Cell Signaling Technologies), and anti-β-actin antibody (Santa Cruz Biotechnology) as primary antibodies were performed, and reaction was allowed to proceed. […]

[4] = system: NF-κB p65; test: Acetylation of NF-κB p65 in skin tissue (western blot), cyclophosphamide alopecia model; format: in vivo, mice; details: cyclophosphamide plus dunnione; day 18
Procedure: as §1, §2

[5] = system: p53; test: Acetylation of p53 in skin tissue (western blot), cyclophosphamide alopecia model; format: in vivo, mice; details: cyclophosphamide plus dunnione; day 18
Procedure: as §1, §2

[6] = system: C57BL/6 mice having alopecia caused by docetaxel, adriamycin, and cyclophosphamide; test: Visual observation of skin in animal model having alopecia caused by 6×TAC; format: in vivo
Excerpt: In 9-week-old C57BL/6 mice, the hair on the dorsal skin area was first removed with an animal hair clipper, and then a depilatory (Niclean cream, manufactured by Ildong Pharmaceutical Co., Ltd.) was applied to the dorsal skin to completely remove the hair.
Docetaxel (DTX), adriamycin (ADR), and cyclophosphamide (CYP) were used as anticancer drugs, and combined administration of the three anticancer drugs was designated as TAC. In addition, information was obtained from the National Comprehensive Cancer Network (NCCN) for the single concentration (designated as 1× concentration) of each anticancer drug which is actually clinically applied to cancer patients. As described below, for the experimental group to be treated with anti-cancer drugs, the mice were treated with docetaxel, adriamycin, and cyclophosphamide at 6× concentration (11.58 mg/kg, 9.24 mg/kg, and 76.8 mg/kg, respectively). When treatment with the anticancer drugs is performed, the anticancer drugs were injected intraperitoneally at time intervals of 1 hour so that each of the anticancer drugs can be sufficiently absorbed.

[7] = system: C57BL/6 mice having alopecia caused by docetaxel, adriamycin, and cyclophosphamide; test: Histological changes in skin (H&E) in animal model having alopecia caused by 6×TAC; format: in vivo; details: day 18
Procedure: The day, on which the mice were hair-removed in Example 1, was set as day 0, and the mice in each of the experimental groups described in Example 4 were sacrificed on day 18. Subsequently, the mouse dorsal skin was dissected parallel or perpendicular to the vertebral line, and removed. The removed skin was fixed with a Bouin's solution for 12 hours, subjected to dehydration, and embedded in paraffin. Then, the resulting product was prepared into 5-μm sections. The prepared sections were subjected to hematoxylin and eosin (H&E) staining, and histological changes in the skin in each experimental group were observed.

[8] = system: NQO1 knockout mice; test: Histological changes in skin (H&E) in NQO1 knockout mice treated with 6×TAC; format: in vivo; details: day 18
Procedure: The day, on which the NQO1 knockout mice were hair-removed according to Example 1, was set as day 0, and the mice in each of the experimental groups described in Example 5 were sacrificed on day 18. Subsequently, the mouse dorsal skin was dissected parallel or perpendicular to the vertebral line, and removed. The removed skin was fixed with a Bouin's solution for 12 hours, subjected to dehydration, and embedded in paraffin. Then, the resulting product was prepared into 5-μm sections. The prepared sections were subjected to hematoxylin and eosin (H&E) staining, and histological changes in the skin in each experimental group were observed.

[9] = system: intracellular NAD^+; details: reported to date (Pandit et al. 2015; Shen et al. 2017); cited from earlier work
[10] = 6×TAC+Dunnione combination-treated group

Q: Which “development of hair follicles and inner root sheaths (histology)” value (“development … (histology)” below) ([1]; CYP+Dun combination-treated group) does the source give for `CC1OC2=C(C(=O)C(=O)c3ccccc32)C1(C)C` (stereo not drawn) [dunnione, 2,3-dihydro-2,3,3-trimethyl-naphtho[1,2-b]furan-4,5-dione] here?
A: Its value is “the hair follicles have poorly developed or the inner root sheaths have insufficiently developed; also recorded: falling-off of hair follicles and inner root sheaths in the skin tissue progresses”.

Q: And the “development … (histology)” value ([1]; dunnione alone)?
A: The value was “the hair follicles and inner root sheaths have well developed overall”.

Q: What about the “Sirt1 activity in skin tissue” value [2] of the same compound?
A: The value was “maintained at a level similar to the normal group”.

Q: And the “expression level of Sirt1 protein in skin tissue” value [3]?
A: Its value is “increases; also recorded: normalizes”.

Q: What about the “acetylation of NF-κB p65 in skin tissue” value [4] of the same compound?
A: The value was “suppresses”.

Q: And the “acetylation of p53 in skin tissue” value [5]?
A: Its value is “suppresses”.

Q: What about the “hair growth, visual observation of skin” value ([6]; 6×TAC+Dunnione combination-treated group, day 18) of the same compound?
A: The value was “hair grew overall so that the skin is full of hair and looks black”.

Q: And the “hair growth, visual observation of skin” value ([6]; 6×TAC+Dunnione: 6×TAC i.p. day 9, dunnione oral daily from 3 days prior, day 14)?
A: Its value is “began to grow more hair than the 6×TAC alone-treated group”.

Q: What about the hair loss ([6]; TAC plus dunnione combination-treated group compared with TAC alone-treated group) of the same compound?
A: The hair loss was “inhibited hair loss”.

Q: And the “hair growth, visual observation of skin” value ([6]; dunnione alone, day 18)?
A: Its value is “hair grew overall so that the skin is full of hair and looks black”.

Q: What about the “development … (histology)” value [7, 10] of the same compound?
A: The value was “the hair follicles and the inner root sheaths have well developed overall; also recorded: suppressed falling-off of hair follicles and inner root sheaths”.

Q: And the “number of growing hairs (histology)” value ([7]; 6×TAC+Dunnione compared with 6×TAC alone-treated group)?
A: The value was “increased number of hairs”.

Q: What about the “development … (histology)” value [8, 10] of the same compound?
A: Its value is “the hair follicles have poorly developed or the inner root sheaths have insufficiently developed; also recorded: falling-off of hair follicles and inner root sheaths in the skin tissue progresses”.

Q: What about the “development … (histology)” value ([8]; dunnione alone) of the same compound?
A: The value was “the hair follicles and inner root sheaths have well developed overall”.

Q: What about the “intracellular NAD^+” value [9] of the same compound?
A: Its value is “increase”.
